Paper PMC4515351 (Parasitology, 2014)
Where two headings read alike, the source gives them in different places.

Tests used:
FhGALE = FhGALE (Fasciola hepatica, UniProt A0A3G0ZAV7); format: binding; settings: for Effect on melting temperature (Tm) of FhGALE: thermal scanning fluorimetry, FhGALE 3.0 µM; for Kd: read-out: apparent dissociation constant (KD,app)
[1] = molecular target: FhGALE (Fasciola hepatica UDP-galactose 4’-epimerase) (Fasciola hepatica, UniProt A0A3G0ZAV7); test: biochemical; format: biochemical; settings: for Selectivity of inhibition, FhGALE versus HsGALE (in words): as judged by respective IC50 values; for IC50 range in words: under the conditions tested, summary of Table 1
HsGALE (human GALE) = molecular target: T1, HsGALE (human GALE) (Homo sapiens, UniProt Q14376); test: HsGALE inhibition, coupled enzyme assay with UDP-glucose dehydrogenase; format: biochemical
T1 sequence (Q14376 1-348): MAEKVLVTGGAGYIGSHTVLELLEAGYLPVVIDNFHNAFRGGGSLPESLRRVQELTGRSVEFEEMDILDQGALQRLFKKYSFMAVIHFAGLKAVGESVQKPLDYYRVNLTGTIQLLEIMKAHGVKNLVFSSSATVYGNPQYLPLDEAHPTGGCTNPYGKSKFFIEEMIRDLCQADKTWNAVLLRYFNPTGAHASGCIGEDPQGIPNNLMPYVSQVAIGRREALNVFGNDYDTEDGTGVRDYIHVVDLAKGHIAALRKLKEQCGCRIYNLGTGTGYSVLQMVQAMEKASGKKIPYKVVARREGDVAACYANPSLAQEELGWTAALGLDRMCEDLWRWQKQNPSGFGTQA

[2] = tested on: UDP-glucose dehydrogenase; settings: 100 µM compound, 0.17 mM UDP-glucose, […] NAD+

| Structure (SMILES) | Effect on melting temperature (Tm) of FhGALE (FhGALE) | IC50 [1] | Selectivity of inhibition, FhGALE versus HsGALE (in words) [1] | IC50 range in words [1] | IC50 (HsGALE (human GALE)) | Selectivity of inhibition, FhGALE versus HsGALE (in words) ([1]; listed as 5-fluoroorotate) | IC50 ([1]; read-out: FhGALE IC50, pH 7.5) | Kd (FhGALE) | Effect on rate of coupling enzyme UDP-glucose dehydrogenase [2] | Selectivity of inhibition, FhGALE versus HsGALE (in words) ([1]; listed as N-[(benzyloxy)carbonyl]leucyltryptophan) |
| --- | --- | --- | --- | --- | --- | --- | --- | --- | --- | --- |
| NC(=O)c1ccc[n+]([C@@H]2O[C@H](COP(=O)([O-])OP(=O)(O)OC[C@H]3O[C@@H](n4cnc5c(N)ncnc54)[C@H](O)[C@@H]3O)[C@@H](O)[C@H]2O)c1 [NAD^+] | no measurable effect | – | – | – | – | – | – | – | – | – |
| CC(C)c1nc2c([nH]1)c(=O)n(C)c(=O)n2C [NSC14303] | – | 0.3 ± 0.11 µM | inhibited the human enzyme to a greater extent than the liver fluke one | submicromolar | 0.013 ± 0.006 µM | – | – | – | – | – |
| CC1(C)OC2C(CO)OC(n3cnc4c(=S)nc[nH]c43)C2O1 (centres unmarked) [NSC27305, 9-[6-(hydroxymethyl)-2,2-dimethyltetrahydrofuro[3,4-d][1,3]dioxol-4-yl]-3,9-dihydro-6H-purine-6-thione] | – | 0.00011 ± 0.00012 µM | inhibited both enzymes to approximately the same extent | sub-nanomolar | 0.0061 ± 0.0092 µM | – | – | – | – | – |
| O=C1NC(=O)C(F)C(C(=O)O)N1 (centres unmarked) [NSC31712, 5-fluoro-2,6-dioxohexahydropyrimidine-4-carboxylate] | reducing the Tm in a concentration dependent manner | – | inhibited FhGALE several orders of magnitude more strongly than HsGALE | submicromolar | – | selectivity for FhGALE over HsGALE | 0.03 ± 0.011 µM | 1900 ± 900 µM | – | – |
| Cn1c(=O)c2[nH]c(COc3ccc(C(C)(C)C)cc3)nc2n(C)c1=O [NSC36525, 8-[(4-tert-butylphenoxy)methyl]-1,3-dimethyl-3,7-dihydro-1H-purine-2,6-dione] | – | 260 µM | inhibited the human enzyme to a greater extent than the liver fluke one | – | 9.5 ± 8.2 µM | – | – | – | – | – |
| CCOc1ccc(NC(=O)c2cc3ccccc3cc2O)cc1 [NSC50690, N-(4-ethoxyphenyl)-3-hydroxynaphthalene-2-carboxamide] | – | 0.061 ± 0.02 µM | inhibited both enzymes to approximately the same extent | submicromolar | 0.045 ± 0.023 µM | – | – | – | – | – |
| COc1cccc(OCC(O)CN2CCN(c3ccccc3)CC2)c1 (centres unmarked) [NSC91378] | – | – | – | – | – | – | – | – | affect the rate | – |
| CC(C)CC(NC(=O)OCc1ccccc1)C(=O)NC(Cc1c[nH]c2ccccc12)C(=O)O (centres unmarked) [NSC335979, (3-(1H–indol-3-yl)-2-[[4-methyl-2-(phenylmethoxycarbonylamino)pentanoyl]amino]propionate)] | reducing the Tm in a concentration dependent manner | – | inhibited FhGALE several orders of magnitude more strongly than HsGALE | submicromolar | – | – | 0.1 ± 0.046 µM | 210 ± 20 µM | – | selectivity for FhGALE over HsGALE |
